Source: article PMC9120017, “Inhibition mechanism of the chloride channel TMEM16A by the pore blocker 1PBC” (Nature Communications, 2022)
Where two headings read alike, the source gives them in different places.

Molecular target: T1, mouse TMEM16A mutant T539A (Mus musculus, UniProt Q8BHY3, T539A)
T1 construct: expressed in transfected cells; host or cells: HEK293T
T1 sequence (Q8BHY3 1-960 T539A): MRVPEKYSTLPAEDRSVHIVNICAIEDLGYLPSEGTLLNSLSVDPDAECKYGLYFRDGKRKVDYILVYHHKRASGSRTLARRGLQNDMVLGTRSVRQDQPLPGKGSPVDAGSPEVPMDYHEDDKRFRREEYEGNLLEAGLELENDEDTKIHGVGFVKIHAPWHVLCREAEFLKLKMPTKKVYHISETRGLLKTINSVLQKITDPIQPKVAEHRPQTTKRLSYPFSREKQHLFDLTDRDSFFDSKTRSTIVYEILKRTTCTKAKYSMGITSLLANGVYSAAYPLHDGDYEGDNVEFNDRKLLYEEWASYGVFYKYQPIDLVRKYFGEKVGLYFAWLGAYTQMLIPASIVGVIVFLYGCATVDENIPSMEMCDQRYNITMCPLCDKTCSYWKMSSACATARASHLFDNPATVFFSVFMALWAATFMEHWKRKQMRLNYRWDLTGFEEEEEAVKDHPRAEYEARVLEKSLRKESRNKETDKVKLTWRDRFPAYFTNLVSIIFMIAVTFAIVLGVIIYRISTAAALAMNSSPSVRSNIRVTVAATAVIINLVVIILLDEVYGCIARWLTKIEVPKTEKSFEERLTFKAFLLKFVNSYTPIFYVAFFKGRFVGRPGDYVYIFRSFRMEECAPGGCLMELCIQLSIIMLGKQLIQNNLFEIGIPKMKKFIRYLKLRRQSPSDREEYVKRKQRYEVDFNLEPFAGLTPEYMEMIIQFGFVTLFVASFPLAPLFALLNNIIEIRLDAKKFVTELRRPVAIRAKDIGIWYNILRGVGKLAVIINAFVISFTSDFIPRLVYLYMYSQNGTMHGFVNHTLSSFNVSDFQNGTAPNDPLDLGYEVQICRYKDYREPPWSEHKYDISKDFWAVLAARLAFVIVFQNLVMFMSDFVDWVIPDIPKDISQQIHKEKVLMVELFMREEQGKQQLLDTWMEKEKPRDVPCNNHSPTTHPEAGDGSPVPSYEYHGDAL
Assay: Inside-out patch recording of 1PBC block, mutant T539A
Assay type: cell-based
Conditions: for remaining activity at 30 µM: 1PBC 30; for remaining activity at 30 µM / remaining activity at 100 µM: read-out: fraction of unblocked current; for remaining activity at 100 µM: 1PBC 100
Method: HEK293T cells (ATCC CRL-1573) were maintained in Dulbecco’s modified Eagle’s medium (DMEM; Sigma-Aldrich) supplemented with 10 U ml^−1 penicillin, 0.1 mg ml^−1 streptomycin (Sigma-Aldrich), 2 mM L-glutamine (Sigma-Aldrich), and 10% FBS (Sigma-Aldrich) in a humidified atmosphere containing 5% CO2 at 37 °C. HEK293S GnTI^− cells (ATCC CRL-3022) were maintained in HyClone HyCell TransFx-H medium (GE Healthcare) supplemented with 10 U ml^−1 penicillin, 0.1 mg ml^−1 streptomycin, 4 mM L-glutamine, 0.15% poloxamer 188 (Sigma-Aldrich), and 1% FBS in an atmosphere containing 5% CO2 at 185 rpm at 37 °C. The ac splice variant of mouse TMEM16A (UniProt ID: Q8BHY3), mouse TMEM16B (UniProt ID: Q8CFW1), or mouse TMEM16F (UniProt ID: Q6P9J9) bearing a 3C cleavage site, a Venus YFP, a Myc tag, and a Streptavidin-binding peptide (SBP) downstream of the open reading frame in a modified pcDNA3.1 vector (Invitrogen) were used as described previously[21],[31]. Mutations were introduced using a modified QuikChange method[58] and were verified by sequencing.
HEK293T cells were transfected with 3–4 μg DNA per 6 cm Petri dish using the calcium phosphate co-precipitation method and were used within 24–96 h after transfection. Recordings were performed on inside-out patches excised from HEK293T cells expressing the construct of interest. Patch pipettes were pulled from borosilicate glass capillaries (O.D. 1.5 mm, I.D. 0.86 mm, Sutter Instrument) and were fire-polished with a microforge (Narishige) before use. Pipette resistance was typically 3–8 MΩ when filled with the recording solutions detailed below. Seal resistance was typically 4 GΩ or higher. Voltage-clamp recordings were made using Axopatch 200B, Digidata 1550, and Clampex 10.7 (Molecular Devices). Analog signals were filtered with the in-built 4-pole Bessel filter at 10 kHz and were digitized at 20 kHz. Solution exchange was achieved using a gravity-fed system through a theta glass pipette mounted on an ultra-fast piezo-driven stepper (Siskiyou). […] All recordings were performed at 20 °C.
A symmetrical ionic condition was used throughout. Stock solution with Ca^2+-EGTA contained 150 mM NaCl, 5.99 mM Ca(OH)2, 5 mM EGTA, and 10 mM HEPES at pH 7.40. Stock solution with EGTA contained 150 mM NaCl, 5 mM EGTA, and 10 mM HEPES at pH 7.40. Free Ca^2+ concentrations were adjusted by mixing the stock solutions at the required ratios calculated using the WEBMAXC program (http://web.stanford.edu/~cpatton/webmaxcS.htm). Patch pipettes were filled with the stock solution with Ca^2+-EGTA, which has a free Ca^2+ concentration of 1 mM. 1PBC (ChemBridge) stock was reconstituted in anhydrous DMSO (Sigma-Aldrich) at 100 mM and stored at −20 °C. Working solutions with 1PBC were prepared by serial dilution. Unless otherwise stated, experiments were performed at a saturating Ca^2+ concentration as shown in Supplementary Table 1 and the primary data were corrected for current rundown as described previously[21],[25].
Concentration-response relations, obtained from the ratio of the I-V plots before and after the application of the blocker, were fitted to the Hill equation,1 I/Imax=1/1+IC50/[blocker]^h where I/Imax is the normalized current responses, IC50 defines the concentration at which inhibition is at its half-maximum, and h is the Hill coefficient.

remaining activity at 30 µM (-60 mV): 46.1% | remaining activity at 30 µM (-80 mV): 49.4% | remaining activity at 30 µM (-100 mV): 53.7% | remaining activity at 30 µM (-120 mV): 55.9% | remaining activity at 30 µM (-140 mV): 58.7% | remaining activity at 100 µM (0 mV): 14.3% | remaining activity at 100 µM (20 mV): 11.9% | remaining activity at 100 µM (40 mV): 11.3% | remaining activity at 100 µM (60 mV): 10% | remaining activity at 100 µM (80 mV): 8.95% | remaining activity at 100 µM (100 mV): 7.58% | remaining activity at 100 µM (120 mV): 8.07% | remaining activity at 100 µM (140 mV): 8.23% | remaining activity at 100 µM (-20 mV): 16.6% | remaining activity at 100 µM (-40 mV): 18.5% | remaining activity at 100 µM (-60 mV): 21.3% | remaining activity at 100 µM (-80 mV): 25% | remaining activity at 100 µM (-100 mV): 28.2% | remaining activity at 100 µM (-120 mV): 30.6% | remaining activity at 100 µM (-140 mV): 34% | IC50 (20 mV, 2 µM Ca2+): 12.9 µM | IC50 (40 mV, 2 µM Ca2+): 11 µM | IC50 (60 mV, 2 µM Ca2+): 9.86 µM | log-fold IC50 (change of mutant vs WT) (80 mV): 0.6239 | IC50 (80 mV, 2 µM Ca2+): 9.02 µM | IC50 (100 mV, 2 µM Ca2+): 8.74 µM | IC50 (120 mV, 2 µM Ca2+): 8.83 µM | IC50 (140 mV, 2 µM Ca2+): 9.45 µM | IC50 (-20 mV, 2 µM Ca2+): 17.3 µM | IC50 (-40 mV, 2 µM Ca2+): 20.5 µM | IC50 (-60 mV, 2 µM Ca2+): 24.4 µM | IC50 (-80 mV, 2 µM Ca2+): 28.9 µM | IC50 (-100 mV, 2 µM Ca2+): 34.3 µM | IC50 (-120 mV, 2 µM Ca2+): 38.6 µM | IC50 (-140 mV, 2 µM Ca2+): 44.4 µM | IC50 (T539A, V 0 mV): 14.9 µM | IC50 (T539A, V 20 mV): 12.9 µM | IC50 (T539A, V 40 mV): 11 µM | IC50 (T539A, V 60 mV): 9.86 µM | IC50 (T539A, V 80 mV): 9.02 µM | IC50 (T539A, V 100 mV): 8.74 µM | IC50 (T539A, V 120 mV): 8.83 µM | IC50 (T539A, V 140 mV): 9.45 µM | IC50 (T539A, V -20 mV): 17.3 µM | IC50 (T539A, V -40 mV): 20.5 µM | IC50 (T539A, V -60 mV): 24.4 µM | IC50 (T539A, V -80 mV): 28.9 µM | IC50 (T539A, V -100 mV): 34.3 µM | IC50 (T539A, V -120 mV): 38.6 µM | IC50 (T539A, V -140 mV): 44.4 µM
SMILES: N#Cc1c(C(F)(F)F)cc(O)n2c1nc1ccccc12 [1PBC]
